The conditions of data set [1]: compared to allopurinol; cited from earlier work.
For another data set, the target named is T1, xanthine oxidase (Homo sapiens, UniProt P47989).
T1 construct: host or cells: forearm blood vessels, in vivo infusion of oxypurinol
The settings on record: intravascular concentration of 10 μg/ml; cited from earlier work.

The test system of the next data set is aorta of SCD mice. In words: Vessel O2.- production by coelenterazine-enhanced chemiluminescence. The format is cell-based, mouse. The settings on record: for rates of O2.— production enhanced by xanthine: SCD mouse vessels pretreated, CuZn SOD 30 U/ml, allopurinol 100 μM, BOF-4272 25 μM. The source says:
Values represent mean±SD (n=4). Statistical analysis was by two-way ANOVA with the Duncan's post hoc test. *, p<0.05 compared to control. +, p<0.05 compared to xanthine-treated sickle cell vessels. **, […] compared to control and all treated vessel groups.

For data set [2], the system named is HbA and HbS red cells. In words: Red cell nitric oxide consumption. The format is cell-based, human. The settings on record: extracellular CuZn SOD 100 U ml^−1; DMNQ 100 μM. The source says:
Values represent mean±SEM (n=4 to 14). Statistical analysis was by two-way ANOVA with Tukey post hoc test. *, p<0.05 compared with basal;
Accepting that *NO reacts at almost diffusion-limited rates with O2.— (25), the relative rates of red cell .NO consumption was utilized to probe for differences in both intra-and extracellular O2.— (and possibly LOO—) production by HbA and HbS red cells. […] The presence of endogenous lipid hydroperoxides was undetectable in both HbA and HbS RBC membranes.

In a further data set the test system is eNOS. Put plainly: NOS activity in lysates of BAEC after oxidant stress. The format is cell-based, bovine. The settings on record: 2 hr, mean ± SEM, n = 3. The text has this:
Also, XO can serve as a source of H2O2 that in turn will support the oxidative reactions of myeloperoxidase (NO consumption and the generation of chlorinating, nitrating and oxidizing species). Another potential mechanism explaining XO inhibition of endothelial-dependent relaxation and cGMP formation may be oxidant-induced changes in the expression and/or activity of eNOS, especially during more chronic exposure to reactive oxygen species. Bovine aortic endothelial cells (BAEC) were exposed to the redox-cycling quinone 2,3-dimethoxynapthoquinone (DMNQ), which generates controllable and low rates of O2.— and H2O2. Following treatment with DMNQ for 2 hr, the capacity of endothelial cell lysates to oxidize arginine to citrulline was used to indicate eNOS activity. Additional cells were incubated with 10 mU/ml XO for 1 hr, extensively washed and 100 μM xanthine was added during a 1 hr post-incubation period.

Data set [3] concerns aortic rings. Put plainly: Acetylcholine relaxation of aortic rings pre-incubated with XO. The format is cell-based. The settings on record: rings incubated with XO 10 mU/ml 1 hr, washed; xanthine in buffer; heparin 10-1000 U/ml, allopurinol 10-250 μM. The protocol:
(§1) Increased cell-associated XO can impair endothelial-dependent vascular signaling. When isolated aortic ring segments are incubated with XO for 1 hr and then extensively washed to remove unbound XO, endothelial-dependent relaxations in response to acetylcholine are diminished when the XO substrate xanthine is present in the buffer (FIG. 2A). Inhibition of endothelial-dependent relaxation is abrogated by post-washing treatment of the aortic rings with the XO inhibitor allopurinol, as well as heparin, which inhibits and/or competes for XO binding to endothelial cell GAGs. This ex vivo model of vascular dysfunction reinforces observations made in a model of atherosclerosis. […] Importantly, there appears to be sufficient substrate in the vasculature for XO to catalyze elevated oxidant production, without the need for exogenously added purine.

The test system of data set [4] is aortic rings. In words: Acetylcholine relaxation of aortic rings from cholesterol-fed rabbits. The settings on record: rings from rabbits on 1% cholesterol diet (6 weeks); heparin 1000 U/ml, allopurinol 100 μM. The format is cell-based, rabbit. Here is the method: as §1
Data set [5] deals with cultured endothelial cells. The settings on record: heparin on bound XO; enzymes as pretreatment of cells; cited from earlier work.
In data set [6] the test system is myocardial ischemia-reperfusion injury. The settings on record: rabbit; cited from earlier work.
In data set [7] the test system is vessel rings prepared from sickle cell mice. In words: Relaxation of vessel rings from sickle cell mice to NO-dependent stimuli. The format is cell-based, mouse. Conditions: MnTE-2-PyP 50 μM, allopurinol 50 μM.
The conditions of data set [8]: at pharmacologic concentrations; cited from earlier work.
Data set [9] concerns myocardial ischemia-reperfusion injury. The settings on record: clinical; cited from earlier work.
The test system of a further data set is guanylate cyclase. Put plainly: Ionomycin-induced .NO-dependent cGMP formation, XO-exposed endothelial cells with smooth muscle cells. The format is cell-based, bovine. Conditions: BAEC exposed to XO 10 mU/ml 3 hr, washed; xanthine 100 μM, ionomycin 6.7 μM, 15 min; cGMP by ELISA. Here is the method:
Endothelial cells were cultured on Transwell filters and exposed to XO (10 mU/ml) for 3 hr and washed extensively. Filters were then transferred to dishes containing smooth muscle cells and incubated with xanthine (100 μM) and ionomycin (6.7 μM)±allopurinol for 15 min. cGMP was then determined by ELISA. (n=3);
Bovine aortic endothelial cell (BAEC) monolayers having bound and potentially internalized XO manifested an impaired ability to support ionomycin-induced, .NO-dependent cGMP formation by adjacent smooth muscle cells.
(In an ELISA, binding on a coated surface is turned into a signal by an enzyme label.)

Data set [10] deals with HbA and HbS red cells. Put plainly: Red cell O2.- release by cytochrome c reduction. The format is cell-based, human. The protocol:
If red blood cells from sickle cell patients produce increased amounts of O2. and H2O2 as compared to red blood cells from healthy donors, then local depletion of .NO might be explained on this basis. […] The mean Hb content of HbA and HbS red cell preparations was similar. DMNQ (100 μM) was added to stimulate red cell O2.— production.
Blood was collected from healthy HbA adult volunteers and homozygous HbS patients in anticoagulated (EDTA) vacu-containers. All individuals were evaluated for cytochrome b5 reductatse and glucose-6-phosphate dehydorgenase activity and none were reported deficient. […] Packed RBCs were diluted to a hematocrit of 2.5% (vol/vol) hemoglobin concentrations as determined with Drabkin's reagent at 540 nm, and rates of O2. release over 2 hours were quanitifed spectrophotometrically by CuZn SOD-inhibitable (100 units/ml, equivalent to approximately 33 ug/ml SOD) reduction of cytochrome c (50 uM) at 550 nm(εM=21 mM^−1cm^−1). In some experiments, O2. release was measured in cells pretreated with DMNQ (Oxis, 100 uM), 3-hydroxy-1,2-dimethyl-4-pyridone (HDP, Aldrich, 0.5 mM), and 4,4-diisothiocyano-2,2 disulfonic acid stilbene (DIDS, Sigma, 200 uM). Possible Hb intereference in determination of rates of cytochrome c reduction was evaluated by performing a singular value decomposition analysis (Matlab, Mathworks, Natick, Mass.).

Entries after “also recorded” stand apart in the source; their conditions may differ. Like-named read-outs stand apart in the source and are kept apart here.

T1 sequence (P47989 whole entry, the tested form may be a part): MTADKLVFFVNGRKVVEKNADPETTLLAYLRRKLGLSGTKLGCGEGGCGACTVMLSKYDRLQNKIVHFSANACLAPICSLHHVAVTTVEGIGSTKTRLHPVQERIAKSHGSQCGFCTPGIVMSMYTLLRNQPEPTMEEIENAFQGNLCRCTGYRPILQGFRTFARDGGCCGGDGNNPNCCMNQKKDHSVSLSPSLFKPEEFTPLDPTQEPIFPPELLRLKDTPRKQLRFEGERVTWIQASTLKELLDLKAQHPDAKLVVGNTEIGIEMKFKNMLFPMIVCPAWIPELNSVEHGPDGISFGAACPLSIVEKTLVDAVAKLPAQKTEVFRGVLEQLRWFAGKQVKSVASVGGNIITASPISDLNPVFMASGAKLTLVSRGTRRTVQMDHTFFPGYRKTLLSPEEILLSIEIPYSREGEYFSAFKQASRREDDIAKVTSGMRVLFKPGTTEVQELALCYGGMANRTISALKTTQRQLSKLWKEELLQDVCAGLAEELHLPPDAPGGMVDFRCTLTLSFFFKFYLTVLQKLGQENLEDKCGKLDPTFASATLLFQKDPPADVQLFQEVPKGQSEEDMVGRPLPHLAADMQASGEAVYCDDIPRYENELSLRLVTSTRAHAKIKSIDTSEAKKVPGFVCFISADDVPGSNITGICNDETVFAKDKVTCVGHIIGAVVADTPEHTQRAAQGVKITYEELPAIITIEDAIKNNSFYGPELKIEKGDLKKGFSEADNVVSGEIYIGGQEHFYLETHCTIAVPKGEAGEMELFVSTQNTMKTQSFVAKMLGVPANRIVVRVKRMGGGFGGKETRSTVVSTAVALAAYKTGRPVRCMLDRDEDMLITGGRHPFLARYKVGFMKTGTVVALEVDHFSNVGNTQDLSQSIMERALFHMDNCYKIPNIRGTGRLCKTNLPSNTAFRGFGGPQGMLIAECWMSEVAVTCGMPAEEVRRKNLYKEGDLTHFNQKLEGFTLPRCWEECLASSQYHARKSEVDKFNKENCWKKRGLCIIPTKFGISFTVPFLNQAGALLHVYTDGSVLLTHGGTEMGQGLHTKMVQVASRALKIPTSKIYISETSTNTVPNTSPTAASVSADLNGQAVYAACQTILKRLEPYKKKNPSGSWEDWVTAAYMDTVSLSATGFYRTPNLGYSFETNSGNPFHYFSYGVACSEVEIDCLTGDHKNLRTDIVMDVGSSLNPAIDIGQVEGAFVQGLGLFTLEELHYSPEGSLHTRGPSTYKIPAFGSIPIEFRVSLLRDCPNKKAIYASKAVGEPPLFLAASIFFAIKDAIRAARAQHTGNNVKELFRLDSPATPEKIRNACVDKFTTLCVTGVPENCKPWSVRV

On to `O=c1[nH]c(=O)c2c[nH]nc2[nH]1` [Oxypurinol], for which, in data set [1], the water solubility entry was “increased water solubility as compared to allopurinol”. The “inhibition of xanthine oxidase activity in the forearm blood vessels” value on xanthine oxidase is “greater than 90%”.
For the compound “CuZn SOD: CuZn superoxide dismutase, O2.- scavenging enzyme”, the “rates of O2.— production enhanced by xanthine” value (“rates … by xanthine” below) in the data set with aorta of SCD mice is given as “returned to basal rates”. Moreover, the “rate of .NO consumption” value in the data set with HbA and HbS red cells [2] was “did not impact on the rate of .NO consumption”.
As for `COC1=C(OC)C(=O)c2ccccc2C1=O` [DMNQ, 2,3-dimethoxynapthoquinone], in the data set with aorta of SCD mice (DMNQ 100 μM, positive control, both control and SCD mouse vessels), the “rates of O2. production” value is reported as “significantly enhanced rates of O2. production”. Also, the figures for the NOS activity with eNOS (DMNQ 5 μM) and in the data set with eNOS (DMNQ 50 μM) were 0.75 ± 0.09 pmol/min/mg prot and 0.49 ± 0.60 pmol/min/mg prot, respectively. Also, the “rate of .NO consumption” value in the data set with HbA and HbS red cells [2] is “significantly increased rates of red cell .NO consumption”.
In the case of heparin, the “reversal of XO-induced reduction of vasodilation in response to acetylcholine” value in the data set on aortic rings [3] is “reversible; also recorded: abrogated”. Further, the “restoration of endothelial-dependent relaxation” value with aortic rings [4] is recorded as “partially restored endothelial-dependent relaxation; also recorded: significantly reversed”. For the same compound, the “effect on XO binding to endothelium” value in data set [5] was “partially displaced”.
Take `Oc1ncnc2[nH]ncc12` [allopurinol]: in the data set on aortic rings [3], the “reversal of XO-induced reduction of vasodilation in response to acetylcholine” value is recorded as “reversible; also recorded: abrogated”. Further, the “rates … by xanthine” value with aorta of SCD mice is on record as “returned to basal rates”. Besides, in the data set on aortic rings [4], the “restoration of endothelial-dependent relaxation” value is “partially restored endothelial-dependent relaxation; also recorded: significantly reversed”. Further, the myocardial ischemia-reperfusion injury entry in [6] and in data set [9] was “attenuated” throughout. The “vessel relaxation in response to NO-dependent stimuli” value in data set [7] is “reversal of impaired vessel relaxation”. In data set [8], the direct antioxidant properties result is “no direct antioxidant properties”. In the data set on guanylate cyclase, the “reversal of XO inhibition of .NO-mediated cGMP formation” value was “reversible”.
Regarding `COc1cc(-c2cnn3c(=O)nc[n-]c23)ccc1[S+]([O-])c1ccccc1.[Na+]` (stereo not shown) [BOF-4272], the “rates … by xanthine” value with aorta of SCD mice is listed as “returned to basal rates”.
With `Cc1c(O)c(=O)ccn1C` [HDP, 3-hydroxy-1,2-dimethyl-4-pyridone], in the data set on HbA and HbS red cells [10] (preincubation with HDP 0.5 mM, 150 mm Hg O2, pH 7.4), the “decrease in O2.—” value was ~36%.
For `O=S(=O)(O)c1cc(N=C=S)ccc1C=Cc1ccc(N=C=S)cc1S(=O)(=O)O` [DDS, 4,4-diisothiocyano-2,2 disulfonic acid stilbene], the “decrease in rates of cytochrome c reduction” value with HbA and HbS red cells [10] (pretreated with 200 μM, both HbA and HbS red cells) is ~35%.

These data come from patent publication US20030158213A1, “Xanthine oxidase inhibition as a strategy to alleviate oxidative impairment of vascular function” (priority 2001, published 2003).
